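Cultured in 96-well plates, cells were exposed to test compound for 48 hours across five concentrations. TGI denotes the concentration required for complete inhibition of growth.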
Experiments:
Test in all cases: inhibition of tumour cell growth, NCI panel, 48 h
[1] = test system: SK-MEL-5 melanoma
[2] = test system: MDA-MB-231 breast
[3] = test system: ACHN renal
[4] = test system: U251 CNS
[5] = test system: KM12 colon
[6] = test system: SNB-19 CNS
[7] = test system: MOLT-4 leukemia
[8] = test system: PC-3 prostate
[9] = test system: HCT-15 colon
[10] = test system: TK-10 renal

SMILES	TGI [1]	TGI [2]	TGI [3]	TGI [4]	TGI [5]	TGI [6]	TGI [7]	TGI [8]	TGI [9]	TGI [10]
N=c1oc2ccc([N+](=O)[O-])cc2cc1C(=O)Nc1ccccn1	> 100 µM	59.9 µM	> 100 µM	> 100 µM	> 100 µM	> 100 µM	> 100 µM	43.9 µM	> 100 µM	
O=CN(O)CC(=O)O.[Ni]	> 100 µM	> 100 µM	> 100 µM	> 100 µM	> 100 µM	> 100 µM	> 100 µM	> 100 µM	> 100 µM	
CCOC(=O)CCC(NC(=O)c1ccc(OCc2ccc3nc(OC)c(OC)nc3c2)cc1)C(=O)OCC (stereo not given)	> 100 µM		> 100 µM	> 100 µM	> 100 µM	> 100 µM	> 100 µM	> 100 µM	> 100 µM	> 100 µM
NC(CCC(=O)NC(CSC(=O)N(O)c1ccc(Cl)cc1)C(=O)NCC(=O)O)C(=O)O (stereo not given)	> 0.5 µM	> 0.5 µM	> 0.5 µM	> 0.5 µM	> 0.5 µM	> 0.5 µM	> 0.5 µM	> 0.5 µM	> 0.5 µM	
CC(=O)N1N=C(c2ccccc2Nc2ccccc2C2=NN(C(C)=O)C(c3ccccc3)O2)OC1c1ccccc1 (stereo not given)	> 100 µM	> 100 µM	> 100 µM	> 100 µM		> 100 µM	> 100 µM	> 100 µM	> 100 µM	> 100 µM
Cc1cc(O)c2c(c1)C(=O)C=C(Br)C2=O	27.4 µM	33.8 µM	29.3 µM	95.1 µM	> 55.8 µM	> 100 µM	4.45 µM	31.8 µM	27.4 µM	30.1 µM
O=C(Nc1ccc(Cl)cc1Cl)c1cc2nc3ccccc3c(=O)n2c2ccccc12	> 10 µM	> 10 µM		> 10 µM	> 10 µM	> 10 µM		> 10 µM	> 10 µM	> 10 µM
O=C1CC(NC2CC(=O)c3c(Br)sc(Br)c32)c2c(Br)sc(Br)c21 (stereo not given)	18.2 µM	10.3 µM	5.22 µM	3.36 µM	6.03 µM	28.4 µM	> 100 µM	7.52 µM	9.2 µM	6.47 µM
CC(C)(C)C(=O)CC(=O)C(F)(F)C(F)(F)C(F)(F)F.CC(C)(C)C(=O)CC(=O)C(F)(F)C(F)(F)C(F)(F)F.CC(C)(C)C(=O)CC(=O)C(F)(F)C(F)(F)C(F)(F)F.[Er]		> 100 µM	> 100 µM	> 100 µM	> 100 µM	> 100 µM		> 100 µM		> 100 µM
O=C(Nc1ccccc1)c1cc2c(cc1Cl)SC(NNCCO)=NS2(=O)=O	> 100 µM	> 100 µM	> 100 µM	> 100 µM	> 100 µM	> 100 µM	> 100 µM	> 100 µM	> 100 µM	> 100 µM
O=[N+]([O-])c1ccc(OP(=O)(O)OCC2OC(CP(=O)(O)O)C(O)C2O)cc1 (stereo not given)	> 100 µM	> 100 µM	> 100 µM	> 100 µM	> 100 µM	> 100 µM	> 100 µM	> 100 µM	> 100 µM	> 100 µM
